Experimental findings from US10246451B2, “Propionic acid derivatives and methods of use thereof” (Aviara Pharmaceuticals, Inc., priority 2017, dated 2019) are described below.

The target in the first assay is α4β1 integrin (Homo sapiens, UniProt P05556+P13612). The assay can be described thus: a4b1 IC50 (inhibition of α4β1 integrin; no method described). The format is binding.
α4β1 integrin, sequence (P05556 21-798, one chain of several): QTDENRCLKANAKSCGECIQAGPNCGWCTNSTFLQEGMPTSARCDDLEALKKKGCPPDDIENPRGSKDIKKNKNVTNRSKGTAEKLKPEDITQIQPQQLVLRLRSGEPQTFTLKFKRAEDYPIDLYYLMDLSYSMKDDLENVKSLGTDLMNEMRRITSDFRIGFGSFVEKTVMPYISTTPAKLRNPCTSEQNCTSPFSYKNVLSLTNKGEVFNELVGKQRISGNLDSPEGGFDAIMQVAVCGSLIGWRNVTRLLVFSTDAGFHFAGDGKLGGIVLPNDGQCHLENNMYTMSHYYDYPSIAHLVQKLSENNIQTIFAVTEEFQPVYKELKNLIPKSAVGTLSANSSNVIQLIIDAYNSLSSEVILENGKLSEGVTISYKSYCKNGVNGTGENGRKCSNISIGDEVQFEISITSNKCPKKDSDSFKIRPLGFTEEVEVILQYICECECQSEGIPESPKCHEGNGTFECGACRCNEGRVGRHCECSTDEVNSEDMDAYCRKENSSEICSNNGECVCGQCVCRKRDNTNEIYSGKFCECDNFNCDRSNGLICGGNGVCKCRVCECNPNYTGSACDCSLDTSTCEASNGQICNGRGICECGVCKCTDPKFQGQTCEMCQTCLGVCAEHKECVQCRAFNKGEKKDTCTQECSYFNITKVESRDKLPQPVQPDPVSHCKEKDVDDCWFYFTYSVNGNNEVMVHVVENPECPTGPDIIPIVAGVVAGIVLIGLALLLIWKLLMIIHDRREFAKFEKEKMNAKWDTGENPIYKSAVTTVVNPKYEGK
Consider `Cn1ccc(O)c(NC(=O)N[C@@H](CC(=O)O)c2cccc(Oc3ccccc3)c2)c1=O` [Compound 3-71, sodium (S)-3-(3-(1-methyl-4-oxido-2-oxo-1,2-dihydropyridin-3-yl)ureido)-3-(3-phenoxyphenyl)propanoate], for which the IC50 is < 200 nM.
The same measure, in the same setting: as for `Cc1cn(C)c(=O)c(NC(=O)N[C@@H](CC(=O)O)c2ccc(Cc3ccccc3Cl)cc2)c1O` [Compound 1-27, sodium (S)-3-(4-(2-chlorobenzyl)phenyl)-3-(3-(4-hydroxy-1,5-dimethyl-2-oxo-1,2-dihydropyridin-3-yl)ureido)propanoate], the figure is > 200 nM.
As for `COc1cccc(Oc2ccc([C@H](CC(=O)O)NC(=O)Nc3c(O)ccn(C)c3=O)cc2)c1` [Compound 3-73, sodium (S)-3-(4-(3-methoxyphenoxy)phenyl)-3-(3-(1-methyl-4-oxido-2-oxo-1,2-dihydropyridin-3-yl)ureido)propanoate], the IC50 is < 200 nM.
On the same count and under the same terms, as for `Cn1ccc(O)c(NC(=O)N[C@@H](CC(=O)O)c2ccc(Cc3ccccc3)s2)c1=O` [Compound 3-96, sodium (S)-3-(5-benzylthiophen-2-yl)-3-(3-(1-methyl-4-oxido-2-oxo-1,2-dihydro-pyridin-3-yl)ureido)propanoate], the figure is < 20 nM.
On to `Cc1cn(C)c(=O)c(NC(=O)NC(CC(=O)O)c2cccc(Cc3cccc(Cl)c3)c2)c1O` (stereo not shown) [Compound 1-25, sodium 3-(3-(3-chlorobenzyl)phenyl)-3-(3-(1,5-dimethyl-4-oxido-2-oxo-1,2-dihydropyridin-3-yl)ureido)propanoate], for which the half-maximal inhibitory concentration (IC50) is < 200 nM.
Same read-out and setting: in the case of `Cc1ccc(Oc2ccc([C@H](CC(=O)O)NC(=O)Nc3c(O)ccn(C)c3=O)cc2)cc1` [Compound 3-75, sodium (S)-3-(3-(1-methyl-4-oxido-2-oxo-1,2-dihydropyridin-3-yl)ureido)-3-(4-(p-tolyloxy)phenyl)propanoate] it was < 200 nM; in that of `Cc1cccc(Cc2ccc([C@H](CC(=O)O)NC(=O)Nc3c(O)ccn(C)c3=O)cc2)c1` [Compound 3-78, sodium (S)-3-(3-(1-methyl-4-oxido-2-oxo-1,2-dihydropyridin-3-yl)ureido)-3-(4-(3-methylbenzyl)phenyl)propanoate], > 200 nM.
On the same count and under the same terms, as for `Cc1cn(C)c(=O)c(NC(=O)N[C@@H](CC(=O)O)c2cccc(Cc3ccccc3)c2)c1O` [Compound 1-23, sodium (S)-3-(3-benzylphenyl)-3-(3-(1,5-dimethyl-4-oxido-2-oxo-1,2-dihydropyridin-3-yl)ureido)propanoate], the figure is < 200 nM.
On the same count and under the same terms, as for `Cc1cn(C)c(=O)c(NC(=O)NC(CC(=O)O)c2cccc(Oc3ccccc3)c2)c1O` (stereo not shown) [Compound 1-21, sodium 3-(3-(1,5-dimethyl-4-oxido-2-oxo-1,2-dihydropyridin-3-yl)ureido)-3-(3-phenoxyphenyl)propanoate], the figure is < 200 nM; as for `Cc1ccccc1Cc1cccc([C@H](CC(=O)O)NC(=O)Nc2c(O)c(C)cn(C)c2=O)c1` [Compound 1-28, sodium (S)-3-(3-(1,5-dimethyl-4-oxido-2-oxo-1,2-dihydropyridin-3-yl)ureido)-3-(3-(2-methylbenzyl)phenyl)propanoate], < 20 nM; as for `Cc1ccccc1C(F)(F)c1cccc([C@H](CC(=O)O)NC(=O)Nc2c(O)ccn(C)c2=O)c1` [Compound 3-65, sodium (S)-3-(3-(difluoro(o-tolyl)methyl)phenyl)-3-(3-(1-methyl-4-oxido-2-oxo-1,2-dihydropyridin-3-yl)ureido)propanoate], < 20 nM.
As to `Cn1ccc(O)c(NC(=O)N[C@@H](CC(=O)O)c2cccc(Oc3ccc(F)cc3F)c2)c1=O` [Compound 3-86, sodium(S)-3-(3-(2,4-difluorophenoxy)phenyl)-3-(3-(1-methyl-4-oxido-2-oxo-1,2-dihydropyridin-3-yl)ureido)propanoate], the IC50 was < 20 nM.
Same read-out and setting: in the case of `Cn1ccc(O)c(NC(=O)N[C@@H](CC(=O)O)c2ccc(Cc3ccccc3)cc2)c1=O` [Compound 3-76, sodium (S)-3-(4-benzylphenyl)-3-(3-(1-methyl-4-oxido-2-oxo-1,2-dihydropyridin-3-yl)ureido)propanoate] it was < 20 nM; in that of `Cc1ccccc1Oc1cccc([C@H](CC(=O)O)NC(=O)Nc2c(O)ccn(C)c2=O)c1` [Compound 3-67, sodium (S)-3-(3-(1-methyl-4-oxido-2-oxo-1,2-dihydropyridin-3-yl)ureido)-3-(3-(o-tolyloxy)phenyl)propanoate], < 20 nM.

The target of a further assay is T1, α4β7 integrin (Homo sapiens, UniProt P13612+P26010).
T1 sequence (P13612 34-1032): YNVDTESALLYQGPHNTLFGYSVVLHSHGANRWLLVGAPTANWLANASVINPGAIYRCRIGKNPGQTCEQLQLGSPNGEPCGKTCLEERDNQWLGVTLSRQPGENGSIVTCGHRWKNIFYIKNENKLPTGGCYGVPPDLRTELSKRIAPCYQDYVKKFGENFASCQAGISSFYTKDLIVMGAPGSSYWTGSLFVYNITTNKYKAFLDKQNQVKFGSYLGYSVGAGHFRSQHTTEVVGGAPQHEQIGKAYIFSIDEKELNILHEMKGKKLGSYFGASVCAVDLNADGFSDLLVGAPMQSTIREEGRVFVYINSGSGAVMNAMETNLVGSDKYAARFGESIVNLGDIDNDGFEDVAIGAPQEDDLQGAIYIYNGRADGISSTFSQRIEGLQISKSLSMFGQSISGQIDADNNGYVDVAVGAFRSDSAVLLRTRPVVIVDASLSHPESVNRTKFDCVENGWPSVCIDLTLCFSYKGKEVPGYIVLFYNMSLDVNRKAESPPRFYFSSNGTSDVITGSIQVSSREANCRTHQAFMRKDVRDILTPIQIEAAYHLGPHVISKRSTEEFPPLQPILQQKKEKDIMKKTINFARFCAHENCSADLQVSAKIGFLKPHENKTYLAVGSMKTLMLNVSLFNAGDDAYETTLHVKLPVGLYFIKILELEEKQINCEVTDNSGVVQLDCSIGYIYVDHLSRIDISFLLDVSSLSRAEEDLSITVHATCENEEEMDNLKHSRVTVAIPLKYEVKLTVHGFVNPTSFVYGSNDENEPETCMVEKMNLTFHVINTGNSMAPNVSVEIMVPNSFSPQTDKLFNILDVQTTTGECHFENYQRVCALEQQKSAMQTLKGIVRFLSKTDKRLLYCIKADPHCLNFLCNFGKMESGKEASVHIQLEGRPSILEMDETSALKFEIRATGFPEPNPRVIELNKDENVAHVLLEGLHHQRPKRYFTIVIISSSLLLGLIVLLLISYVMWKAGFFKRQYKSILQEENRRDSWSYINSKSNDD
T1 sequence (P26010 20-798): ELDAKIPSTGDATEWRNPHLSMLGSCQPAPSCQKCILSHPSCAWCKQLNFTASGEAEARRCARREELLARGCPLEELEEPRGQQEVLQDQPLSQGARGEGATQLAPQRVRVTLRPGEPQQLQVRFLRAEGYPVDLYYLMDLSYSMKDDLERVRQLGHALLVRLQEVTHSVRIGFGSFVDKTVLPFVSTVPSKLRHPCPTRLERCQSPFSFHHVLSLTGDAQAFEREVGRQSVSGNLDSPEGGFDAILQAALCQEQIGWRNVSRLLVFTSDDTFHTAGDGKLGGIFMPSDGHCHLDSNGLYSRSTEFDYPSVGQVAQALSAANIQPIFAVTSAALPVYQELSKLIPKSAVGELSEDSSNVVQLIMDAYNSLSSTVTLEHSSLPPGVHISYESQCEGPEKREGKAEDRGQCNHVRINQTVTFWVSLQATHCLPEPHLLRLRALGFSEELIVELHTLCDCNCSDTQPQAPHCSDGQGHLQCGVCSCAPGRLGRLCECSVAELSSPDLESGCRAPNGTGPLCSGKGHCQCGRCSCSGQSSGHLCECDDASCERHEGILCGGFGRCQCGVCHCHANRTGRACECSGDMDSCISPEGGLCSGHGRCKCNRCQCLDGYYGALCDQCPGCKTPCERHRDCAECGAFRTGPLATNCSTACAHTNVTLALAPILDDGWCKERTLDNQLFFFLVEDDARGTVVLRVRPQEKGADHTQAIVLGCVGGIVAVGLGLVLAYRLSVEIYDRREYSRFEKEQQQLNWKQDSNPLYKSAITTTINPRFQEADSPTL
The experiment in a line: a4b7 IC50 (inhibition of α4β7 integrin; no method described). The format is binding.
With `Cn1ccc(O)c(NC(=O)N[C@@H](CC(=O)O)c2cccc(Oc3ccccc3)c2)c1=O` [Compound 3-71, sodium (S)-3-(3-(1-methyl-4-oxido-2-oxo-1,2-dihydropyridin-3-yl)ureido)-3-(3-phenoxyphenyl)propanoate], the IC50 was < 20 nM.
Same read-out and setting: in the case of `Cc1ccccc1C(F)(F)c1cccc([C@H](CC(=O)O)NC(=O)Nc2c(O)ccn(C)c2=O)c1` [Compound 3-65, sodium (S)-3-(3-(difluoro(o-tolyl)methyl)phenyl)-3-(3-(1-methyl-4-oxido-2-oxo-1,2-dihydropyridin-3-yl)ureido)propanoate] it was < 200 nM.

As a reminder, the IC50 is the concentration at which inhibition is half-maximal. Lower therefore signals greater potency in that assay.
